Measurements reported in patent US20220023293A1, “EZH2- FGFR INHIBITION IN CANCER” (Stichting Het Nederlands Kanker Instituut-Antoni van …, priority 2018, published 2022).

What was measured:
[1] = system: BAP1 deficient mesothelioma cells; assay: short term assay, drug response curve (Alamar blue), 384-well; type: cell-based, mouse; conditions: single agent; BNC versus NC derived early passage cell lines; FIG. 4B, 4C
Description: For short term colony formation assay, the mesothelioma cell lines were seeded in 500 cells per well in a 384-well plate. The next day drugs (GSK126, AZD4547, AZD2461, ABT-263) were added in a matrix format at the indicated concentration using HP D300 digital dispenser (HP) and cells were grown in presence of drug(s) or DMSO control for 5 days. Thereafter, 10% v/v Alamar blue was added to the well and incubated at 370 C for 4 hours. The plates were read with Tecan reader. The data were analyzed and plotted for drug response curve.

FGF7, FGF2 and FGFR2 = assay: gene expression analysis (RNA sequencing) after EZH2 inhibitor treatment; type: cell-based, mouse; conditions: GSK126 treated versus DMSO treated Bap1 deficient cells; log 2 expression; FIG. 4E
Description: For gene expression analysis, RNA was isolated from tumor tissue with the Qiagen All prep DNA/RNA kit. Quantification and quality assessment for RNA were performed with a Bioanalyzer (RIN >6.5) (Agilent, Santa Clara, Calif., USA).
Sequencing libraries were constructed with a TruSeq mRNA Library Preparation Kit using poly-A-enriched RNA (Illumina, San Diego, Calif., USA). The samples were run on a HiSeq 2500 Illumina sequencer for cluster generation and sequencing.
For RNA sequencing and expression analysis, Illumina TruSeq mRNA libraries were sequenced with 51 base single reads on a HiSeq2000 using V3 chemistry (Illumina Inc., San Diego). The sequence reads were mapped to the mouse genome (mm10), using TopHat (2.0.12). TopHat was run with default. Reads with mapping quality less than 10 and non-primary alignments were discarded. Remaining reads were counted using HTSeq-cout. Statistical analysis of the differential expression of genes was performed using DESeq2. Genes with False Discovery Rate (FDR) for differential expression lower than 0.05 were considered significant. Batch effect within tumor samples from different source was corrected using ComBat with default options through the Bioconductor sva package 3.10.

Row | SMILES | drug response of BAP1 deficient versus proficient mesothelioma cells (dose response curve) [1] | expression of FGF/FGFR pathway genes (FGF7, FGF2, FGFR2) (FGF7, FGF2 and FGFR2)
1 | COc1cc(CCc2cc(NC(=O)c3ccc(N4C[C@@H](C)N[C@@H](C)C4)cc3)n[nH]2)cc(OC)c1 [AZD4547, N-[5-[2-(3,5-dimethoxyphenyl)ethyl]-1H-pyrazol-3-yl]-4-[(3R,5S)-3,5-dimethylpiperazin-1-yl]benzamide] | hypersensitive | –
2 | CC[C@H](C)n1cc(C)c2c(C(=O)NCc3c(C)cc(C)[nH]c3=O)cc(-c3ccc(N4CCNCC4)nc3)cc21 [GSK126, 1-[(2S)-butan-2-yl]-N-[(4,6-dimethyl-2-oxo-1H-pyridin-3-yl)methyl]-3-methyl-6-(6-piperazin-1-ylpyridin-3-yl)indole-4-carboxamide] | hypersensitive | upregulation of FGF/FGFR pathway genes
